From US20180321224A1, “COMPOSITIONS AND METHODS FOR INCREASING HEPATOCYTE FUNCTIONAL LIFETIME IN VITRO” (Colorado State University Research Foundation, priority 2015, published 2018)
Like-named read-outs stand apart in the source and are kept apart here.

Assays:
[1] = tested on: primary human hepatocytes in micropatterned co-cultures (MPCCs); assay: Hepatotoxicity screening in MPCCs pre-cultured in physiologic medium (urea synthesis); settings: for Calculated TC50 (interpolated concentration where urea synthesis drops below 50% of the vehicle control): MPCCs in physiologic medium for 10 days, treated 2 times over 5 days in serum free medium, vehicle DMSO
Protocol: Therefore, a drug screen with cultures after they were subjected to physiologic medium for 10 days was carried out (FIG. 5). […] Drug treatments were carried out in serum free medium to prevent potential drug-protein interactions.
Urea synthesis and glucose production was quantified using previously described methods. Since human serum contains significant amounts of […], an alternative protocol to quantify MPCC albumin production was used. Specifically, after 2 and 3 weeks of culture, cultures were washed 3 times with 1×PBS, and then incubated for 24 hours in serum free medium. Albumin was then measured in this medium using a sandwich ELISA method. To account for potential residual albumin in cell culture medium, any differences in albumin production between cultures incubated in 5%, 7.5% and 10% serum were examined. […] Enzyme activity was assessed using the methods previously described.
Drug toxicity and enzyme induction were assessed as previously described.

[2] = average maximal drug concentration observed in patients after administering the drug; cited from earlier work
[3] = after 2 treatments over 5 days at 25*Cmax and 100*Cmax, serum free medium, MPCCs pre-cultured in physiologic medium 10 days

| Compound | Toxicity categorization by urea synthesis in MPCC supernatants (toxic if below 50% of vehicle control) [1] | Calculated TC50 (interpolated concentration where urea synthesis drops below 50% of the vehicle control) [1] | Toxicity categorization by urea synthesis in MPCC supernatants (toxic if below 50% of vehicle control) [1, 3] | Cmax [2] |
| --- | --- | --- | --- | --- |
| CC(=O)Oc1ccccc1C(=O)O [aspirin] | no significant loss in urea synthesis |  |  |  |
| C[C@@H]1C[C@H]2[C@@H]3CCC4=CC(=O)C=C[C@]4(C)[C@@]3(F)[C@@H](O)C[C@]2(C)[C@@]1(O)C(=O)CO [dexamethasone] | no significant loss in urea synthesis |  |  |  |
| Clc1ccc(COC(Cn2ccnc2)c2ccc(Cl)cc2Cl)c(Cl)c1 (stereo not shown) [miconazole] | no significant loss in urea synthesis |  |  |  |
| C[C@]12C=CC(=O)C=C1CC[C@@H]1[C@@H]2C(=O)C[C@@]2(C)[C@H]1CC[C@]2(O)C(=O)CO [prednisone] | no significant loss in urea synthesis |  |  |  |
| piroxicam |  | 2.901 mM | toxic | 5.13 µM |
| troglitazone |  | 1.555 mM | toxic | 6.39 µM |
